For the assay, the target named is T1, Syk (Homo sapiens, UniProt P43405).
T1 construct: purchased Carna Biosciences
Nature of the assay: Syk HTRF assay. The format is biochemical. Here is the method: Test compounds were prepared at a concentration of 1.5 mM in DMSO followed by 3-fold dilutions in Greiner […] polypropylene plates. A 1:4 dilution of compounds by 8 μL/well transfer from the polypropylene plates to 24 μL/well Assay Buffer in Costar 3710 384 well black plates was then performed. Kinases (13 μL/well) or Assay Buffer only (background controls; 50 mM HEPES pH 7.6, 1 mM DTT, 10 mM MgCl2, 0.01% Triton X100, 0.01% BSA and 0.1 mM EDTA) were added to Costar 3710 384-well black plates for the HTRF assays (Carna Biosciences) and compound was added from the 1:4 dilution plate. Syk start mix (87.5 μM ATP, 80 nM Substrate Peptide (American Peptide Company 332722) was added and the mixture was incubated at room temperature for 1 hour. Syk Stop Solution (120 mM EDTA in dilution buffer) was then added to the Syk HTRF assay plate and incubated at room temperature on a shaker for 2 minutes. Syk Antibody Mix (4.86 μg/mL DyLight 647 Streptavidin (Pierce 21824); 1 μg/mL Lance Eu-Anti-Phosphotyrosine (PerkinElmer AD0069)) was added to the Syk HTRF assay plate and the mixture was further incubated at room temperature for >4 h. Time resolved fluorescence was read in assay plates on a PerkinElmer EnVision. HTRF assays were performed using 320 nm excitation, 60 μs delay, 665 nm and 615 nm emission. Data was expressed by division of 665 nm by 615 nm emissions.

Where [1] appears, read: read-out: Activity Level (Syk HTRF assay IC50).
The mark [2] stands for this setting: activity levels A-D, read-out: Activity Level (IC50 in the Syk HTRF assay).
The mark [3] stands for this setting: IC50 activity level, read-out: Activity Level.

pIC50: −log10 of the molar value. Read-outs that look alike come from different tables or passages of the source.

As to `OCc1nc2ccc(Nc3nc4cccc(N[C@H]5CC[C@@H](O)CC5)n4n3)cc2[nH]1` [Example 195, cis-4-(2-(2-(hydroxymethyl)-1H-benzo[d]imidazol-6-ylamino)-[1,2,4]triazolo[1,5-a]pyridin-5-ylamino)cyclohexanol], the pIC50 under setting [1] was 6.60 to 11.30.
Take `CC(C)(O)c1ccc(Nc2nc3cccc(N[C@H]4CC[C@@H](O)CC4)n3n2)cn1` [Example 359, cis-4-(2-(6-(2-hydroxypropan-2-yl)pyridin-3-ylamino)-[1,2,4]triazolo[1,5-a]pyridin-5-ylamino)cyclohexanol]: the pIC50 under setting [2] is 5.00 to 6.00.
Regarding `OC1CC[C@H](Nc2cccc3nc(Nc4ccc(C(F)(F)F)cc4)nn23)C1` (stereo in doubt) [Example 419, (1S,3S)-3-(2-(4-(trifluoromethyl)phenylamino)-[1,2,4]triazolo[1,5-a]pyridin-5-ylamino)cyclopentanol], the pIC50 under setting [3] was 6.30 to 6.60.
Turning to `OCCOc1cc(Nc2nc3cccc(N[C@H]4CC[C@@H](O)CC4)n3n2)ccn1` [Example 277, cis-4-(2-(2-(2-hydroxyethoxy)pyridin-4-ylamino)-[1,2,4]triazolo[1,5-a]pyridin-5-ylamino)cyclohexanol], the pIC50 under setting [2] is 6.60 to 11.30.
Turning to `O=C1NCc2cc(-c3cccc4nc(Nc5ccccc5)nn34)ccc21` [Example 496, 5-(2-(phenylamino)-[1,2,4]triazolo[1,5-a]pyridin-5-yl)isoindolin-1-one], the pIC50 under setting [3] was 6.30 to 6.60.
In the case of `Cc1n[nH]c2cc(Nc3nc4cccc(NC[C@H]5CC[C@H](O)C5)n4n3)ccc12` [Example 181, (1S,3S)-3-((2-(3-methyl-1H-indazol-6-ylamino)-[1,2,4]triazolo[1,5-a]pyridin-5-ylamino)methyl)cyclopentanol], the pIC50 under setting [1] was 6.60 to 11.30.
As for `c1ccc(Nc2nc3cccc(-c4ccnc(N5CCNCC5)c4)n3n2)cc1` [Example 520, N-phenyl-5-(2-(piperazin-1-yl)pyridin-4-yl)-[1,2,4]triazolo[1,5-a]pyridin-2-amine], the pIC50 under setting [3] was 5.00 to 6.00.
Take `Cc1cc(Nc2nc3cccc(CC4CCOCC4)n3n2)cc2[nH]nc(C)c12` [Example 548, N-(3,4-dimethyl-1H-indazol-6-yl)-5-((tetrahydro-2H-pyran-4-yl)methyl)-[1,2,4]triazolo[1,5-a]pyridin-2-amine]: under setting [3], the pIC50 is 6.60 to 11.30.
As to `OC1CCN(Cc2cccc3nc(Nc4ccc(C(F)(F)F)cc4)nn23)C1` (stereo in doubt) [Example 335, (R)-1-((2-(4-(trifluoromethyl)phenylamino)-[1,2,4]triazolo[1,5-a]pyridin-5-yl)methyl)pyrrolidin-3-ol], the pIC50 under setting [2] was 5.00 to 6.00.
Consider `c1cc(N[C@@H]2CCCNC2)n2nc(Nc3ccc4cn[nH]c4c3)nc2c1` [Example 467, (R)-N^2-(1H-indazol-6-yl)-N^5-(piperidin-3-yl)-[1,2,4]triazolo[1,5-a]pyridin-2,5-diamine], for which the pIC50 under setting [3] was 6.60 to 11.30.
Still for that read-out and setting: under `O[C@H]1CC[C@@H](Oc2cccc3nc(Nc4ccc(F)cc4)nn23)CC1` [Example 417, cis-4-(2-(4-fluorophenylamino)-[1,2,4]triazolo[1,5-a]pyridin-5-yloxy)cyclohexanol] stands 5.00 to 6.00.
Consider `CCN1CCC(Cc2cccc3nc(Nc4ccc(C(F)(F)F)cc4)nn23)CC1` [Example 407, 5-((1-ethylpiperidin-4-yl)methyl)-N-(4-(trifluoromethyl)phenyl)-[1,2,4]triazolo[1,5-a]pyridin-2-amine], for which, under setting [3], the pIC50 is 6.00 to 6.30.
With `Cc1cc(Nc2nc3cccc(Cc4ccnc(O)c4)n3n2)cc2[nH]ncc12` [compound 124, 4-((2-(4-methyl-1H-indazol-6-ylamino)-[1,2,4]triazolo[1,5-a]pyridin-5-yl)methyl)pyridine-2-ol], the pIC50 under setting [1] was 6.60 to 11.30.
For the molecule `CNCc1nc2cc(-c3cccc4nc(Nc5ccccc5)nn34)ccc2[nH]1` [Example 487, 5-(2-((methylamino)methyl)-1H-benzo[d]imidazol-5-yl)-N-phenyl-[1,2,4]triazolo[1,5-a]pyridin-2-amine], under setting [3], the pIC50 is 6.60 to 11.30.
Turning to `Nc1n[nH]c2cc(Nc3nc4cccc(N[C@H]5CCCNC5)n4n3)ccc12` [Example 451, (S)-N^2-(3-amino-1H-indazol-6-yl)-N^5-(piperidin-3-yl)-[1,2,4]triazolo[1,5-a]pyridine-2,5-diamine], under setting [3], the pIC50 was 6.60 to 11.30.
In the case of `NC(=O)c1ccc(Nc2nc3cccc(NC4CCCNC4)n3n2)cc1` (stereo in doubt) [Example 476, (R)-4-(5-(piperidin-3-ylamino)-[1,2,4]triazolo[1,5-a]pyridin-2-ylamino)benzamide], under setting [3], the pIC50 is 5.00 to 6.00.
In the case of `c1ccc(-c2cccc3nc(Nc4cncnc4)nn23)cc1` [compound 74, 5-phenyl-N-(pyrimidin-5-yl)-[1,2,4]triazolo[1,5-a]pyridin-2-amine], the pIC50 under setting [1] is 5.00 to 6.00.
Consider `Cc1n[nH]c2ccc(Nc3nc4cccc(NC5CCOCC5)n4n3)cc12` [compound 117], for which, under setting [1], the pIC50 was 6.00 to 6.30.
Consider `OC1CCC[C@@H]1Nc1cccc2nc(Nc3ccc(C(F)(F)F)cc3)nn12` (stereo in doubt) [Example 374, (1S,2S)-2-(2-(4-(trifluoromethyl)phenylamino)-[1,2,4]triazolo[1,5-a]pyridin-5-ylamino)cyclopentanol], for which the pIC50 under setting [2] was 6.60 to 11.30.
As for `NC(=O)c1ccc(Nc2nc3cccc(N[C@H]4CC[C@@H](O)CC4)n3n2)cc1F` [Example 347, cis-2-fluoro-4-(5-(4-hydroxycyclohexylamino)-[1,2,4]triazolo[1,5-a]pyridin-2-ylamino)benzamide], the pIC50 under setting [2] is 6.60 to 11.30.
For the molecule `Cc1n[nH]c2cc(Nc3nc4cccc(C(F)(F)C5CCOCC5)n4n3)ccc12` [Example 562, 5-(difluoro(tetrahydro-2H-pyran-4-yl)methyl)-N-(3-methyl-1H-indazol-6-yl)-[1,2,4]triazolo[1,5-a]pyridin-2-amine], the pIC50 under setting [3] is 6.60 to 11.30.
For the molecule `CNC(=O)c1ccc(Nc2nc3cccc(O[C@H]4CC[C@@H](N)CC4)n3n2)cc1` [Example 283, cis-4-(5-(4-aminocyclohexyloxy)-[1,2,4]triazolo[1,5-a]pyridin-2-ylamino)-N-methylbenzamide], under setting [2], the pIC50 was 5.00 to 6.00.
`c1ccc(Nc2nc3cccc(-c4ccc5nc(CN6CCCC6)[nH]c5c4)n3n2)cc1` [Example 428, N-phenyl-5-(2-(pyrrolidin-1-ylmethyl)-1H-benzo[d]imidazol-6-yl)-[1,2,4]triazolo[1,5-a]pyridin-2-amine]: the pIC50 under setting [3] is 6.60 to 11.30.
Consider `O[C@@H]1CCC[C@H](Nc2cccc3nc(Nc4ccc(C(F)(F)F)cc4)nn23)C1` (single isomer, unassigned; enantiomer 1) [Example 223, cis-3-(2-(4-(trifluoromethyl)phenylamino)-[1,2,4]triazolo[1,5-a]pyridin-5-ylamino)cyclohexanol (enantiomer 1)], for which the pIC50 under setting [2] was 5.00 to 6.00.
As to `Nc1noc2ccc(-c3cccc4nc(Nc5ccccc5)nn34)cc12` [Example 457, 5-(2-(phenylamino)-[1,2,4]triazolo[1,5-a]pyridin-5-yl)benzo[d]isoxazol-3-amine], the pIC50 under setting [3] is 6.60 to 11.30.
As for `CNC(=O)c1ccc(Nc2nc3cccc(CC(O)C4CCNCC4)n3n2)cc1` (centres unmarked) [Example 306, 4-(5-(2-hydroxy-2-(piperidin-4-yl)ethyl)-[1,2,4]triazolo[1,5-a]pyridin-2-ylamino)-N-methylbenzamide], the pIC50 under setting [2] was 5.00 to 6.00.
Turning to `NC(=O)c1cncc(Nc2nc3cccc(N[C@H]4CC[C@@H](O)CC4)n3n2)c1` [Example 369, cis-5-(5-(4-hydroxycyclohexylamino)-[1,2,4]triazolo[1,5-a]pyridin-2-ylamino)nicotinamide], under setting [2], the pIC50 was 5.00 to 6.00.
On to `Cc1n[nH]c2cc(Nc3nc4cccc(C(O)C5CCOCC5)n4n3)ccc12` (centres unmarked) [Example 200, (2-(3-methyl-1H-indazol-6-ylamino)-[1,2,4]triazolo[1,5-a]pyridin-5-yl)(tetrahydro-2H-pyran-4-yl)methanol], for which, under setting [2], the pIC50 is 6.00 to 6.30.
Same read-out and setting: under `Cc1cc(Nc2nc3cccc(N[C@H]4CC[C@@H](O)CC4)n3n2)ccn1` [Example 367, cis-4-(2-(2-methylpyridin-4-ylamino)-[1,2,4]triazolo[1,5-a]pyridin-5-ylamino)cyclohexanol] stands 6.00 to 6.30.
With `CC1(C)C(=O)Nc2cc(Nc3nc4cccc(N5CCOCC5)n4n3)ccc21` [Example 571, 3,3-dimethyl-6-(5-morpholino-[1,2,4]triazolo[1,5-a]pyridin-2-ylamino)indolin-2-one], the pIC50 under setting [3] was 6.60 to 11.30.
For `CC1(C)C(=O)Nc2cc(Nc3nc4cccc(CC5CCOC5)n4n3)ccc21` (single isomer, unassigned; enantiomer 2) [Example 558, 3,3-dimethyl-6-(5-((tetrahydrofuran-3-yl)methyl)-[1,2,4]triazolo[1,5-a]pyridin-2-ylamino)indolin-2-one (enantiomer 2)], the pIC50 under setting [3] was 6.60 to 11.30.
As to `Cn1ncc2cc(Nc3nc4cccc(N[C@H]5CC[C@@H](O)CC5)n4n3)ccc21` [Example 236, cis-4-(2-(1-methyl-1H-indazol-5-ylamino)-[1,2,4]triazolo[1,5-a]pyridin-5-ylamino)cyclohexanol], the pIC50 under setting [2] was 6.60 to 11.30.

Source of the values: patent publication US8299056B2 (Signal Pharmaceuticals, LLC, priority 2008, dated 2012).
